Literature values, collected in patent US5010056A, “Pharmaceutical composition for intranasal administration, comprising GH-releasing hormone, a cholinergic agonist and optionally a bile salt” (priority 1987, dated 1991).
Like-named read-outs stand apart in the source and are kept apart here.

Legend:
GH secretion = conditions: previous administration of an oral dose
[1] = orally administered

Compound	effect on GH secretion and on the effect of intravenously injected GHRH (GH secretion)	bioavailability [1]	bioavailability (nasal administration)	doses required nasally to obtain comparable effects, relative to parenteral doses (nasal versus parenteral administration)
CN(C)C(=O)Oc1ccc[n+](C)c1 [pyridostigmine]	able to stimulate GH secretion and significantly increase the effect of intravenously injected GHRH	low		
GH-releasing hormone [GHRH]			low	300-1000 times the parenteral doses
